According to patent US20200231638A1, “STABILIZED ANTI-MICROBIAL PEPTIDES” (priority 2015, published 2020):
Bridge positions count the residues as written; N and C are the ends. Square brackets hold non-standard residues; d marks the D form. Peptide text beside a SMILES is read from it. R8 = C=CCCCCCC[C@@](C)(N)C(=O)O; S5 = C=CCCC[C@](C)(N)C(=O)O; Nle = CCCC[C@H](N)C(=O)O

How the values were obtained:
E. coli = format: cell-based, Escherichia coli
Outline: (§1)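 Microdilution MIC test in polyanion-depleted MHB, with a final inoculum of 5×10^5 CFU/ml and 20-24 h incubation at 37° C.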

P. aeruginosa = format: cell-based, Pseudomonas aeruginosa
Outline: as §1

S. aureus = format: cell-based, Staphylococcus aureus
Outline: as §1

human red blood cells = format: cell-based; settings: red cells of human, 1 h, 25
Outline: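 Hemolysis expressed as absorbance of released hemoglobin (570 nm) normalized between untreated and 1% Triton-X100 controls, with MHC taken as peptide concentration giving under 1% release. Peptide dilutions were exposed for 1 h at 37° C to a 1% (v/v) suspension of washed human red cells in PBS.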

B. cereus = format: cell-based, Bacillus cereus
Outline: as §1

Row | SMILES | MIC E. coli (E. coli) [µg/mL] | MIC P. aeruginosa (P. aeruginosa) [µg/mL] | MIC S. aureus (S. aureus) [µg/mL] | MIC B. cereus (B. cereus) [µg/mL] | % Hemolysis at 25 μg/ml (human red blood cells) [%]
1 | CCCC[C@H](NC(=O)[C@@H](NC(=O)[C@H](CCC(=O)O)NC(=O)CNC(=O)[C@@H](NC(=O)[C@H](Cc1ccccc1)NC(=O)[C@H](C)NC(=O)[C@H](CCCCN)NC(=O)CNC(=O)[C@]1(C)CCCC=CCCCCCC[C@@](C)(NC(=O)[C@H](CCCCN)NC(=O)CNC(=O)[C@@H](NC(=O)CN)[C@@H](C)CC)C(=O)N[C@@H](CC(C)C)C(=O)N[C@@H](Cc2c[nH]cn2)C(=O)N[C@@H](CO)C(=O)N[C@@H](C)C(=O)N[C@@H](CCCCN)C(=O)N[C@@H](CCCCN)C(=O)N1)C(C)C)[C@@H](C)CC)C(=O)N[C@@H](CC(N)=O)C(=O)N[C@@H](CO)C(N)=O [Mag(i + 7)4] (H-GIGK[R8]LHSAKK[S5]GKAFVGEI[Nle]NS-NH2; staple 5-12 (inferred); N-terminus and C-terminus assumed) | 1.6 | 3.1 | 25 | 6.2 | 42.6
2 | CCCC[C@H](NC(=O)[C@@H](NC(=O)[C@H](CCC(=O)O)NC(=O)CNC(=O)[C@]1(C)CCCC=CCCCCCC[C@@](C)(NC(=O)[C@H](C)NC(=O)[C@H](CO)NC(=O)[C@H](Cc2c[nH]cn2)NC(=O)[C@H](CC(C)C)NC(=O)[C@H](Cc2ccccc2)NC(=O)[C@H](CCCCN)NC(=O)CNC(=O)[C@@H](NC(=O)CN)[C@@H](C)CC)C(=O)N[C@@H](CCCCN)C(=O)N[C@@H](Cc2ccccc2)C(=O)NCC(=O)N[C@@H](CCCCN)C(=O)N[C@@H](C)C(=O)N[C@@H](Cc2ccccc2)C(=O)N1)[C@@H](C)CC)C(=O)N[C@@H](CC(N)=O)C(=O)N[C@@H](CO)C(N)=O [Mag(i + 7)9] (H-GIGKFLHSA[R8]KFGKAF[S5]GEI[Nle]NS-NH2; staple 10-17 (inferred); N-terminus and C-terminus assumed) | 3.1 | 3.1 | 3.1 | 3.1 | 94.6
3 | CCCC[C@H](NC(=O)[C@]1(C)CCCC=CCCC[C@](C)(NC(=O)[C@H](C)NC(=O)[C@H](CCCCN)NC(=O)CNC(=O)[C@H](Cc2ccccc2)NC(=O)[C@H](CCCCN)NC(=O)[C@H](CCCCN)NC(=O)[C@H](Cc2c[nH]cn2)NC(=O)[C@H](CO)NC(=O)[C@]2(C)CCCC=CCCC[C@](C)(NC(=O)[C@H](CCCCN)NC(=O)CN)C(=O)N[C@@H](CCCCN)C(=O)N[C@@H](Cc3ccccc3)C(=O)N[C@@H](CC(C)C)C(=O)N2)C(=O)N[C@@H](C(C)C)C(=O)NCC(=O)N[C@@H](CCC(=O)O)C(=O)N1)C(=O)N[C@@H](CCC(=O)O)C(=O)N[C@@H](CO)C(N)=O [Mag(i + 4)2, 15(I2K, A9H, N21E)] (H-GK[S5]KFL[S5]SHKKFGKA[S5]VGE[S5][Nle]ES-NH2; staple 3-7, 16-20) | 3.1 | 12.5 | 50 | 25 | 1.8
4 | CC[C@H](C)[C@H](NC(=O)CN)C(=O)NCC(=O)N[C@@H](CCCCN)C(=O)N[C@@H](Cc1ccccc1)C(=O)N[C@@H](CC(C)C)C(=O)N[C@@H](Cc1c[nH]cn1)C(=O)N[C@@H](CO)C(=O)N[C@@H](C)C(=O)N[C@@H](CCCCN)C(=O)N[C@@H](CCCCN)C(=O)N[C@@H](Cc1ccccc1)C(=O)NCC(=O)N[C@]1(C)CCCCCCC=CCCC[C@@](C)(C(=O)N[C@@H](CC(N)=O)C(=O)N[C@@H](CO)C(N)=O)NC(=O)[C@H]([C@@H](C)CC)NC(=O)[C@H](CCC(=O)O)NC(=O)CNC(=O)[C@H](C(C)C)NC(=O)[C@H](Cc2ccccc2)NC(=O)[C@H](C)NC1=O [Mag(i + 7)13] (H-GIGKFLHSAKKFG[R8]AFVGEI[S5]NS-NH2; staple 14-21 (inferred); N-terminus and C-terminus assumed) | 1.6 | 6.2 | 12.5 | 3.1 | 63.6

Further lines, with some results ahead:

Row | MIC E. coli (E. coli) [µg/mL] | MIC P. aeruginosa (P. aeruginosa) [µg/mL] | MIC S. aureus (S. aureus) [µg/mL] | MIC B. cereus (B. cereus) [µg/mL] | SMILES | % Hemolysis at 25 μg/ml (human red blood cells) [%]
5 | 3.1 | 12.5 | >50 | 50 | CCCC[C@H](NC(=O)[C@]1(C)CCCC=CCCC[C@](C)(NC(=O)[C@H](C)NC(=O)[C@H](CCCCN)NC(=O)CNC(=O)[C@H](Cc2ccccc2)NC(=O)[C@H](CCCCN)NC(=O)[C@H](CCCCN)NC(=O)[C@H](C)NC(=O)[C@H](CO)NC(=O)[C@H](Cc2c[nH]cn2)NC(=O)[C@H](CC(C)C)NC(=O)[C@H](Cc2ccccc2)NC(=O)[C@H](CCCCN)NC(=O)CNC(=O)[C@@H](NC(=O)CN)[C@@H](C)CC)C(=O)N[C@@H](CCCCN)C(=O)NCC(=O)N[C@@H](CCC(=O)O)C(=O)N1)C(=O)N[C@@H](CC(N)=O)C(=O)N[C@@H](CO)C(N)=O [Mag(i + 4)15(V17K), GIGKFLHSAKKFGKAXKGEXBNS] (H-GIGKFLHSAKKFGKA[S5]KGE[S5][Nle]NS-NH2; staple 16-20) | 2.2
6 | 3.1 | 12.5 | 12.5 | 6.2 | CCCC[C@H](NC(=O)[C@]1(C)CCCC=CCCC[C@](C)(NC(=O)[C@H](Cc2c[nH]cn2)NC(=O)[C@H](CCCCN)NC(=O)CNC(=O)[C@H](Cc2ccccc2)NC(=O)[C@H](CCCCN)NC(=O)[C@H](CCCCN)NC(=O)[C@H](C)NC(=O)[C@H](CO)NC(=O)[C@H](Cc2c[nH]cn2)NC(=O)[C@H](CC(C)C)NC(=O)[C@H](Cc2ccccc2)NC(=O)[C@H](CCCCN)NC(=O)CNC(=O)[C@@H](NC(=O)CN)[C@@H](C)CC)C(=O)N[C@@H](C(C)C)C(=O)NCC(=O)N[C@@H](CCC(=O)O)C(=O)N1)C(=O)N[C@@H](CC(N)=O)C(=O)N[C@@H](CO)C(N)=O [Mag(i + 4)15(A15H), GIGKFLHSAKKFGKHXVGEXBNS] (H-GIGKFLHSAKKFGKH[S5]VGE[S5][Nle]NS-NH2; staple 16-20) | 4.7
7 | 50 | >50 | >50 | >50 | CCCC[C@H](NC(=O)[C@]1(C)CCCC=CCCC[C@](C)(NC(=O)[C@H](C)NC(=O)[C@H](CCCCN)NC(=O)CNC(=O)[C@H](Cc2ccccc2)NC(=O)[C@H](CCCCN)NC(=O)[C@H](CCCCN)NC(=O)[C@H](C)NC(=O)[C@H](CO)NC(=O)[C@H](Cc2c[nH]cn2)NC(=O)[C@H](CCC(=O)O)NC(=O)[C@H](Cc2ccccc2)NC(=O)[C@H](CCCCN)NC(=O)CNC(=O)[C@@H](NC(=O)CN)[C@@H](C)CC)C(=O)N[C@@H](C(C)C)C(=O)NCC(=O)N[C@@H](CCC(=O)O)C(=O)N1)C(=O)N[C@@H](CC(N)=O)C(=O)N[C@@H](CO)C(N)=O [Mag(i + 4)15(L6E), GIGKFEHSAKKFGKAXVGEXBNS] (H-GIGKFEHSAKKFGKA[S5]VGE[S5][Nle]NS-NH2; staple 16-20) | 1.1
8 | 1.6 | 3.1 | 25 | 12.5 | CCCC[C@H](NC(=O)[C@]1(C)CCCC=CCCC[C@](C)(NC(=O)[C@H](C)NC(=O)[C@H](CCCCN)NC(=O)CNC(=O)[C@H](Cc2ccccc2)NC(=O)[C@H](CCCCN)NC(=O)[C@H](CCCCN)NC(=O)[C@H](C)NC(=O)[C@H](CO)NC(=O)[C@H](Cc2c[nH]cn2)NC(=O)[C@H](CC(C)C)NC(=O)[C@H](Cc2ccccc2)NC(=O)[C@H](CCCCN)NC(=O)CNC(=O)[C@@H](NC(=O)[C@@H](N)CCCCN)[C@@H](C)CC)C(=O)N[C@@H](C(C)C)C(=O)NCC(=O)N[C@@H](CCC(=O)O)C(=O)N1)C(=O)N[C@@H](CC(N)=O)C(=O)N[C@@H](CO)C(N)=O [Mag(i + 4)15(G1K), KIGKFLHSAKKFGKAXVGEXBNS] (H-KIGKFLHSAKKFGKA[S5]VGE[S5][Nle]NS-NH2; staple 16-20) | 4.5
9 | 3.1 | 12.5 | 12.5 | 6.2 | CCCC[C@H](NC(=O)[C@]1(C)CCCC=CCCC[C@](C)(NC(=O)[C@H](C)NC(=O)[C@H](CCCCN)NC(=O)CNC(=O)[C@H](Cc2ccccc2)NC(=O)[C@H](CCCCN)NC(=O)[C@H](CCCCN)NC(=O)[C@H](C)NC(=O)[C@H](CO)NC(=O)[C@H](Cc2c[nH]cn2)NC(=O)[C@H](CC(C)C)NC(=O)[C@H](Cc2ccccc2)NC(=O)[C@H](CCCCN)NC(=O)CNC(=O)[C@@H](NC(=O)CN)[C@@H](C)CC)C(=O)N[C@@H](C(C)C)C(=O)N[C@@H](CCC(=O)O)C(=O)N[C@@H](CCC(=O)O)C(=O)N1)C(=O)N[C@@H](CC(N)=O)C(=O)N[C@@H](CO)C(N)=O [Mag(i + 4)15(G18E), GIGKFLHSAKKFGKAXVEEXBNS] (H-GIGKFLHSAKKFGKA[S5]VEE[S5][Nle]NS-NH2; staple 16-20) | 4.8
10 | 3.1 | 6.2 | 50 | 12.5 | CC[C@H](C)[C@H](NC(=O)CN)C(=O)NCC(=O)N[C@@H](CCCCN)C(=O)N[C@@H](Cc1ccccc1)C(=O)N[C@@H](CC(C)C)C(=O)N[C@@H](Cc1c[nH]cn1)C(=O)N[C@@H](CO)C(=O)N[C@@H](C)C(=O)N[C@@H](CCCCN)C(=O)N[C@@H](CCCCN)C(=O)N[C@@H](Cc1ccccc1)C(=O)NCC(=O)N[C@@H](CCCCN)C(=O)N[C@@H](C)C(=O)N[C@@H](Cc1ccccc1)C(=O)N[C@@]1(C)CCCC=CCCC[C@@](C)(C(=O)N[C@@H](CC(N)=O)C(=O)N[C@@H](CO)C(N)=O)NC(=O)[C@H]([C@@H](C)CC)NC(=O)[C@H](CCC(=O)O)NC(=O)CNC1=O [Mag(i + 4)16, GIGKFLHSAKKFGKAFXGEIXNS] (H-GIGKFLHSAKKFGKAF[S5]GEI[S5]NS-NH2; staple 17-21) | 7.8
